From ChEMBL document CHEMBL1136832, “Synthesis of 7-chloro-2,3-dihydro-2-[1-(pyridinyl)alkyl]-pyridazino[4,5-b]quinoline-1,4,10(5H)-triones as NMDA glycine-site antagonists” (Bioorg Med Chem Lett, 2003)

How the values were obtained:
[1] = physchem; settings: buffer, pH 7.4
[2] = target: Glutamate NMDA receptor; assay type: cell membranes, Membrane
Description: Affinity for glycine site of NMDA receptor on rat brain membranes by displacement of [3H]- MDL 105,519.

[3] = tested on: Caco-2; settings: Homo sapiens
Description: Cellular permeability in Caco-2 cells.

[4] = Oral bioavailability in rat; settings: in vivo

| SMILES | solubility [1] | Ki [2] | bioavailability [4] | Permeability [3] |
| --- | --- | --- | --- | --- |
| CC(c1ccncc1)n1[nH]c(=O)c2[nH]c3cc(Cl)ccc3c(=O)c2c1=O.CS(=O)(=O)O (stereo not drawn) | – | – | 30% | 5.8e-06 |
| CS(=O)(=O)O.O=c1[nH]n(C(c2ccccc2)c2ccncc2)c(=O)c2c(O)c3ccc(Cl)cc3nc12 (stereo not drawn) | 130 µg/mL | > 10 µM | – | 4e-06 |
| O=c1[nH]n(Cc2ccncc2)c(=O)c2c(=O)c3ccc(Cl)cc3[nH]c12 | – | – | 5% | 2e-07 |
| CS(=O)(=O)O.O=c1[nH]n(C(c2ccccn2)C2CCCC2)c(=O)c2c(O)c3ccc(Cl)cc3nc12 (stereo not drawn) | > 170 µg/mL | > 10 µM | – | 5.6e-06 |
| CCC(c1ccncc1)n1[nH]c(=O)c2[nH]c3cc(Cl)ccc3c(=O)c2c1=O.CS(=O)(=O)O (stereo not drawn) | > 200 µg/mL | – | 17% | 1.1e-05 |
| CC(C)CC(c1ccccn1)n1[nH]c(=O)c2nc3cc(Cl)ccc3c(O)c2c1=O.CS(=O)(=O)O (stereo not drawn) | > 130 µg/mL | > 10 µM | – | 9.1e-06 |
| CC(C)CC(c1ccncc1)n1[nH]c(=O)c2nc3cc(Cl)ccc3c(O)c2c1=O.CS(=O)(=O)O (stereo not drawn) | > 170 µg/mL | 5.23 µM | – | 1.1e-05 |
| CCCCC(c1ccccn1)n1[nH]c(=O)c2nc3cc(Cl)ccc3c(O)c2c1=O.CS(=O)(=O)O (stereo not drawn) | > 220 µg/mL | > 10 µM | – | 1.6e-05 |

More lines, in order of falling Ki [2], values ahead:

| solubility [1] | Ki [2] | bioavailability [4] | SMILES | Permeability [3] |
| --- | --- | --- | --- | --- |
| > 220 µg/mL | 4.34 µM | – | CCCC(c1ccncc1)n1[nH]c(=O)c2nc3cc(Cl)ccc3c(O)c2c1=O.CS(=O)(=O)O (stereo not drawn) | 1.6e-05 |
| – | 2.42 µM | – | CC(c1cc[n+]([O-])cc1)n1[nH]c(=O)c2nc3cc(Cl)ccc3c(O)c2c1=O (stereo not drawn) | – |
| – | 2.36 µM | – | CCC(c1ccccn1)n1[nH]c(=O)c2nc3cc(Cl)ccc3c(O)c2c1=O (stereo not drawn) | – |
| 490 µg/mL | 0.996 µM | – | CS(=O)(=O)O.O=c1[nH]n(C(c2ccccn2)C2CC2)c(=O)c2c(O)c3ccc(Cl)cc3nc12 (stereo not drawn) | 9.8e-06 |
| > 160 µg/mL | 0.439 µM | – | O=c1[nH]n(Cc2cc[n+]([O-])cc2)c(=O)c2c(O)c3ccc(Cl)cc3nc12 | 5e-07 |
